# Measurements as given in patent US7371766B2, “Curcumin analogs with anti-tumor and anti-angiogenic properties” (Emory University, priority 1999, dated 2008).
# What was measured:
# HOP-92 = assay: cells; details: Homo sapiens, HOP-92, 48 h; for GI50: read-out: Median Growth Inhibitory Concentration (GI50); for CC50: read-out: Median Lethal Concentration (LC50)
# CCRF-CEM = details: for GI50: read-out: Median Growth Inhibitory Concentration (GI50), Leukemia, 48 hours
# SR = details: for GI50: read-out: Median Growth Inhibitory Concentration (GI50), Leukemia, 48 hours
# EKVX = details: for GI50: read-out: Median Growth Inhibitory Concentration (GI50), Non-Small Cell Lung Cancer, 48 hours
# NCI-H23 = details: 48 hours; for GI50: read-out: Median Growth Inhibitory Concentration (GI50), NCI-H23, Non-Small Cell Lung Cancer
# NCI-H460 = details: 48 hours; for GI50: read-out: Median Growth Inhibitory Concentration (GI50), NCI-H460, Non-Small Cell Lung Cancer
# HCC-2998 = details: 48 hours; for GI50: read-out: Median Growth Inhibitory Concentration (GI50), HCC-2998, Colon Cancer
# HCT-15 = details: 48 hours; for GI50: read-out: Median Growth Inhibitory Concentration (GI50), HCT-15, Colon Cancer
# KM12 = details: 48 hours; for GI50: read-out: Median Growth Inhibitory Concentration (GI50), KM12, Colon Cancer
# SW-620 = details: 48 hours; for GI50: read-out: Median Growth Inhibitory Concentration (GI50), SW-620, Colon Cancer
# SF-268 = details: 48 hours; for GI50: read-out: Median Growth Inhibitory Concentration (GI50), SF-268, CNS Cancer
# SF-539 = details: 48 hours; for GI50: read-out: Median Growth Inhibitory Concentration (GI50), SF-539, CNS Cancer
# SNB-75 = details: 48 hours; for GI50: read-out: Median Growth Inhibitory Concentration (GI50), SNB-75, CNS Cancer
# MALME-3M = details: for GI50: read-out: Median Growth Inhibitory Concentration (GI50), Melanoma, 48 hours
# M14 = details: 48 hours; for GI50: read-out: Median Growth Inhibitory Concentration (GI50), M14, Melanoma
# SK-MEL-5 = details: 48 hours; for GI50: read-out: Median Growth Inhibitory Concentration (GI50), SK-MEL-5, Melanoma
# UACC-257 = details: 48 hours; for GI50: read-out: Median Growth Inhibitory Concentration (GI50), UACC-257, Melanoma
# UACC-62 = details: 48 hours; for GI50: read-out: Median Growth Inhibitory Concentration (GI50), UACC-62, Melanoma
# IGROV1 = details: 48 hours; for GI50: read-out: Median Growth Inhibitory Concentration (GI50), IGROV1, Ovarian Cancer
# OVCAR-3 = details: 48 hours; for GI50: read-out: Median Growth Inhibitory Concentration (GI50), OVCAR-3, Ovarian Cancer
# OVCAR-4 = details: 48 hours; for GI50: read-out: Median Growth Inhibitory Concentration (GI50), OVCAR-4, Ovarian Cancer
# OVCAR-5 = details: 48 hours; for GI50: read-out: Median Growth Inhibitory Concentration (GI50), OVCAR-5, Ovarian Cancer
# OVCAR-8 = details: 48 hours; for GI50: read-out: Median Growth Inhibitory Concentration (GI50), OVCAR-8, Ovarian Cancer
# SK-OV-3 = details: 48 hours; for GI50: read-out: Median Growth Inhibitory Concentration (GI50), SK-OV-3, Ovarian Cancer
# A498 = details: 48 hours; for GI50: read-out: Median Growth Inhibitory Concentration (GI50), A498, Renal Cancer
# ACHN = details: for GI50: read-out: Median Growth Inhibitory Concentration (GI50), Renal Cancer, 48 hours
# UO-31 = details: 48 hours; for GI50: read-out: Median Growth Inhibitory Concentration (GI50), UO-31, Renal Cancer
# NCI/ADR-RES = details: for GI50: read-out: Median Growth Inhibitory Concentration (GI50), Breast Cancer, 48 hours
# MDA-MB-231 = details: 48 hours; for GI50: read-out: Median Growth Inhibitory Concentration (GI50), MDA-MB-231, Breast Cancer
# MDA-N = details: for GI50: read-out: Median Growth Inhibitory Concentration (GI50), Breast Cancer, 48 hours
# BT-549 = details: 48 hours; for GI50: read-out: Median Growth Inhibitory Concentration (GI50), BT-549, Breast Cancer
# T-47D = details: for GI50: read-out: Median Growth Inhibitory Concentration (GI50), Breast Cancer, 48 hours
# [1] = read-out: Median Lethal Concentration (LC50), Leukemia, 48 hours, SRB assay
# [2] = read-out: Median Lethal Concentration (LC50), Breast Cancer, 48 hours, SRB assay
compound,measurement,setting,value
"OC(CCc1ccc(F)cc1F)CCc1ccc(F)cc1F [EF19, 1,5-Bis(2,4-difluorophenyl)-pentan-3-ol]",GI50,HOP-92,17.5 µM
same,CC50,HOP-92,59.3 µM
CC1(/C=C/c2ccccc2O)C=Cc2ccccc2O1 (centres unmarked) [EF7],GI50,HOP-92,12.7 µM
same,CC50,HOP-92,54.9 µM
C(=C\c1ccccc1)/S/C=C/c1ccccc1 [EF15],GI50,CCRF-CEM,41.5 µM
same,GI50,SR,52 µM
same,GI50,EKVX,64 µM
same,GI50,NCI-H23,> 100 µM
same,GI50,NCI-H460,> 100 µM
same,GI50,HCC-2998,31.6 µM
same,GI50,HCT-15,49.1 µM
same,GI50,KM12,55.7 µM
same,GI50,SW-620,79.8 µM
same,GI50,SF-268,> 100 µM
same,GI50,SF-539,> 100 µM
same,GI50,SNB-75,98.8 µM
same,GI50,MALME-3M,> 100 µM
same,GI50,M14,> 100 µM
same,GI50,SK-MEL-5,53.9 µM
same,GI50,UACC-257,55.4 µM
same,GI50,UACC-62,66.7 µM
same,GI50,IGROV1,> 100 µM
same,GI50,OVCAR-3,> 100 µM
same,GI50,OVCAR-4,> 100 µM
same,GI50,OVCAR-5,> 100 µM
same,GI50,OVCAR-8,> 100 µM
same,GI50,SK-OV-3,> 100 µM
same,GI50,A498,23.3 µM
same,GI50,ACHN,> 100 µM
same,GI50,UO-31,96.8 µM
same,GI50,NCI/ADR-RES,> 100 µM
same,GI50,MDA-MB-231,> 100 µM
same,GI50,MDA-N,67.8 µM
same,GI50,BT-549,> 100 µM
same,GI50,T-47D,18.5 µM
"O=C1C(=Cc2ccccc2O)COCC1=Cc1ccccc1O [EF25, 3,5-Bis(2-hyrdoxybenzylidene)tetrahydro4-H-pyran4-one]",GI50,CCRF-CEM,0.3 µM
same,CC50,CCRF-CEM; [1],> 100 µM
same,GI50,SR,0.2 µM
same,CC50,SR; [1],76.3 µM
same,GI50,EKVX,1.4 µM
same,CC50,"EKVX; read-out: Median Lethal Concentration (LC50), Non-Small Cell Lung Cancer, 48 hours, SRB assay",24.2 µM
same,GI50,NCI-H23,1.7 µM
same,CC50,"NCI-H23; read-out: Median Lethal Concentration (LC50), Non-Small Cell Lung Cancer, NCI-H23, SRB assay",12.9 µM
same,GI50,NCI-H460,1.2 µM
same,CC50,"NCI-H460; read-out: Median Lethal Concentration (LC50), Non-Small Cell Lung Cancer, NCI-H460, SRB assay",38.9 µM
same,GI50,HCC-2998,1.5 µM
same,CC50,"HCC-2998; read-out: Median Lethal Concentration (LC50), Colon Cancer, HCT-2998, SRB assay",5.3 µM
same,GI50,HCT-15,0.7 µM
same,CC50,"HCT-15; read-out: Median Lethal Concentration (LC50), Colon Cancer, HCT-15, SRB assay",16.1 µM
same,GI50,KM12,0.3 µM
same,CC50,"KM12; read-out: Median Lethal Concentration (LC50), Colon Cancer, KM12, SRB assay",10.7 µM
same,GI50,SW-620,0.5 µM
same,CC50,"SW-620; read-out: Median Lethal Concentration (LC50), Colon Cancer, SW-620, SRB assay",75.3 µM
same,GI50,SF-268,1.4 µM
same,CC50,"SF-268; read-out: Median Lethal Concentration (LC50), CNS Cancer, SF-268, SRB assay",43.3 µM
same,GI50,SF-539,0.5 µM
same,CC50,"SF-539; read-out: Median Lethal Concentration (LC50), CNS Cancer, SF-539, SRB assay",16.8 µM
same,GI50,SNB-75,1.8 µM
same,CC50,"SNB-75; read-out: Median Lethal Concentration (LC50), CNS Cancer, SNB-75, SRB assay",14 µM
same,GI50,MALME-3M,1.9 µM
same,CC50,"MALME-3M; read-out: Median Lethal Concentration (LC50), Melanoma, 48 hours, SRB assay",19.3 µM
same,GI50,M14,1.8 µM
same,CC50,"M14; read-out: Median Lethal Concentration (LC50), Melanoma, M14, SRB assay",19.4 µM
same,GI50,SK-MEL-5,1.5 µM
same,CC50,"SK-MEL-5; read-out: Median Lethal Concentration (LC50), Melanoma, SK-MEL-5, SRB assay",6.6 µM
same,GI50,UACC-257,1.6 µM
same,CC50,"UACC-257; read-out: Median Lethal Concentration (LC50), Melanoma, UACC-257, SRB assay",8.2 µM
same,GI50,UACC-62,1.7 µM
same,CC50,"UACC-62; read-out: Median Lethal Concentration (LC50), Melanoma, UACC-62, SRB assay",14.4 µM
same,GI50,IGROV1,0.8 µM
same,CC50,"IGROV1; read-out: Median Lethal Concentration (LC50), Ovarian Cancer, IGROV1, SRB assay",14.5 µM
same,GI50,OVCAR-3,0.9 µM
same,CC50,"OVCAR-3; read-out: Median Lethal Concentration (LC50), Ovarian Cancer, OVCAR-3, SRB assay",23.5 µM
same,GI50,OVCAR-4,2 µM
same,CC50,"OVCAR-4; read-out: Median Lethal Concentration (LC50), Ovarian Cancer, OVCAR-4, SRB assay",23.3 µM
same,GI50,OVCAR-5,1.7 µM
same,CC50,"OVCAR-5; read-out: Median Lethal Concentration (LC50), Ovarian Cancer, OVCAR-5, SRB assay",8.4 µM
same,GI50,OVCAR-8,0.8 µM
same,CC50,"OVCAR-8; read-out: Median Lethal Concentration (LC50), Ovarian Cancer, OVCAR-8, SRB assay",23 µM
same,GI50,SK-OV-3,2.4 µM
same,CC50,"SK-OV-3; read-out: Median Lethal Concentration (LC50), Ovarian Cancer, SK-OV-3, SRB assay",26.9 µM
same,GI50,A498,1.3 µM
same,CC50,"A498; read-out: Median Lethal Concentration (LC50), Renal Cancer, A498, SRB assay",6 µM
same,GI50,ACHN,1.5 µM
same,CC50,"ACHN; read-out: Median Lethal Concentration (LC50), Renal Cancer, 48 hours, SRB assay",18.2 µM
same,GI50,UO-31,1.2 µM
same,CC50,"UO-31; read-out: Median Lethal Concentration (LC50), Renal Cancer, UO-31, SRB assay",68.1 µM
same,GI50,NCI/ADR-RES,1.6 µM
same,CC50,NCI/ADR-RES; [2],71 µM
same,GI50,MDA-MB-231,1.9 µM
same,CC50,"MDA-MB-231; read-out: Median Lethal Concentration (LC50), Breast Cancer, MDA-MB-231, SRB assay",17.2 µM
same,GI50,MDA-N,1 µM
same,CC50,MDA-N; [2],20 µM
same,GI50,BT-549,1.5 µM
same,CC50,"BT-549; read-out: Median Lethal Concentration (LC50), Breast Cancer, BT-549, SRB assay",13.6 µM
same,GI50,T-47D,1.3 µM
same,CC50,T-47D; [2],92.9 µM
"3,5-Bis(2-hydroxybenzylidene)-sulfone [EF11]",GI50,CCRF-CEM,22 µM
same,GI50,SR,21.5 µM
same,GI50,EKVX,30.6 µM
same,GI50,NCI-H23,35.8 µM
same,GI50,NCI-H460,30.7 µM
same,GI50,HCC-2998,20.5 µM
same,GI50,HCT-15,42.6 µM
same,GI50,KM12,19.1 µM
same,GI50,SW-620,32.5 µM
same,GI50,SF-268,24.6 µM
same,GI50,SF-539,39.9 µM
same,GI50,SNB-75,20.3 µM
same,GI50,MALME-3M,40.7 µM
same,GI50,M14,33.9 µM
same,GI50,SK-MEL-5,23.2 µM
same,GI50,UACC-257,29.8 µM
same,GI50,UACC-62,21.3 µM
same,GI50,IGROV1,35.9 µM
same,GI50,OVCAR-3,41.8 µM
same,GI50,OVCAR-4,28.7 µM
same,GI50,OVCAR-5,89.2 µM
same,GI50,OVCAR-8,47.1 µM
same,GI50,SK-OV-3,> 100 µM
same,GI50,A498,34.2 µM
same,GI50,ACHN,41 µM
same,GI50,UO-31,28.4 µM
same,GI50,NCI/ADR-RES,86.1 µM
same,GI50,MDA-MB-231,25.6 µM
same,GI50,MDA-N,36.9 µM
same,GI50,BT-549,32.9 µM
same,GI50,T-47D,24.7 µM
"CC(=O)O.O=C1C(=Cc2ccccc2F)CNCC1=Cc1ccccc1F [EF24, 3,5-Bis-(2-fluorobenzylidene)-piperidin-4-one-acetate]",GI50,HOP-92,3 µM
same,CC50,HOP-92,23.3 µM
"O=C(C=Cc1ccc(F)cc1F)C=Cc1ccc(F)cc1F [EF9, 1,5-Bis(2,4-difluorophenyl)penta-1,4-dien-3-one]",GI50,HOP-92,16.3 µM
same,CC50,HOP-92,70.4 µM
"O=C1C(=Cc2ccccc2O)CCCC1=Cc1ccccc1O [EF4, 2,6Bis(2-hydroxybenzylidene)cyclohexanone]",GI50,HOP-92,2.8 µM
same,CC50,HOP-92,41.4 µM
